Experimental data published in ChEMBL document CHEMBL1149376, “Sulfamoyl-4-oxoquinoline-3-carboxamides: novel potentiators of defective DeltaF508-cystic fibrosis transmembrane conductance regulator chloride channel gating” (Bioorg Med Chem Lett, 2006).

Biological target: Cystic fibrosis transmembrane conductance regulator (Homo sapiens) (UniProt P13569)
Assay: Potentiation of deltaF508 mutated CFTR dependent iodide influx at 0.1 uM
Format: functional

Sequence of Cystic fibrosis transmembrane conductance regulator (Homo sapiens) (P13569 whole entry, looked up): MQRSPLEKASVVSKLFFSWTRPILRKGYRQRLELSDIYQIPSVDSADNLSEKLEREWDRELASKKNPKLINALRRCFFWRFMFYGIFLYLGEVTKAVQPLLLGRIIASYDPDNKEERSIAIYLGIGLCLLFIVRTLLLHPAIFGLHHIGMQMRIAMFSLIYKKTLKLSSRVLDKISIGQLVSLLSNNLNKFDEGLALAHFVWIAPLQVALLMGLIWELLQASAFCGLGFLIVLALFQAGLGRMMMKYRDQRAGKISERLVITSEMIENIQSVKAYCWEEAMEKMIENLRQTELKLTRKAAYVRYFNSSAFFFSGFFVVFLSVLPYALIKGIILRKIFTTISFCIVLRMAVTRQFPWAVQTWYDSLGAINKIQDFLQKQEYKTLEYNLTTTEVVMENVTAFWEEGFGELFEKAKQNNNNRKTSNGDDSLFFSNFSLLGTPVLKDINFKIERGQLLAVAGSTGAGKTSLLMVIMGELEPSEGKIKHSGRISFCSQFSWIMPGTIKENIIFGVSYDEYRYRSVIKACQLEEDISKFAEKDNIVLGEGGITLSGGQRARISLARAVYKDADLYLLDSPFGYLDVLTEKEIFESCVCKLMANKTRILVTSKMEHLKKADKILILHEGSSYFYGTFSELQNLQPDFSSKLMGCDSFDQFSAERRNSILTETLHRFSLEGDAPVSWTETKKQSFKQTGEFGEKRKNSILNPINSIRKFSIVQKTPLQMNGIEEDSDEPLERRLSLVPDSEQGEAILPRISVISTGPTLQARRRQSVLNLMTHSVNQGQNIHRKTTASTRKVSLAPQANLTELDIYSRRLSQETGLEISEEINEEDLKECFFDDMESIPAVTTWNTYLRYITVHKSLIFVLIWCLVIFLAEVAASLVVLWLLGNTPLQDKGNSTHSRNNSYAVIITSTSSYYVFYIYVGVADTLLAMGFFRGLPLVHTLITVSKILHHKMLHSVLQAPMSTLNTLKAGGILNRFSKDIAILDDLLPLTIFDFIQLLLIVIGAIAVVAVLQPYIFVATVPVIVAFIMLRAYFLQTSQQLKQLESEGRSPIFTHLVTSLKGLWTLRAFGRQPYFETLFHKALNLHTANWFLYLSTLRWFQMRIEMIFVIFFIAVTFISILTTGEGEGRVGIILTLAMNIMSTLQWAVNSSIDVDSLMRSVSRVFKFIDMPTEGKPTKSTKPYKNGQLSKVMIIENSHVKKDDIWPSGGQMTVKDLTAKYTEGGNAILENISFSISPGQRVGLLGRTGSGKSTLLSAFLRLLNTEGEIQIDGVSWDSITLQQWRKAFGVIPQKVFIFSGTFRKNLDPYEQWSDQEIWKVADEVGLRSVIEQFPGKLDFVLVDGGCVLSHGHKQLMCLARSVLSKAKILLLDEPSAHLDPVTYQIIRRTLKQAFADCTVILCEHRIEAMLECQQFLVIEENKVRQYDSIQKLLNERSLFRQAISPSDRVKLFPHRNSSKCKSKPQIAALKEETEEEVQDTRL

Activity: 50%
Compound: CCN(c1ccccc1)S(=O)(=O)c1ccc2ncc(C(=O)NCc3ccccc3OC)c(O)c2c1
